Test results reported in PubChem BioAssay AID192 (DTP/NCI, 2004).
Where “and” joins values, the source holds several entries; their conditions need not be identical. Identical values can stand only once. Inconclusive results and toxic doses are left out. The calls were made as follows: active = survival T/C of 150% or more; inactive = T/C below 125% in these data.

Test system: BDF1 mice, B16 melanoma ip, median survival T/C
Assay: NCI In Vivo Anticancer Drug Screen. Data for tumor model B16 Melanoma (intraperitoneal) in B6D2F1 (BDF1) mice
Settings: endpoint: median survival time, schedule: Q01DX009 (ip), higher = longer survival
Outline: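 Survival or tumor size is measured after treatment of tumor-bearing mice and normalised to the vehicle-treated control group.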

[1] = dose: 3.0 mg/kg/injection, vehicle: saline with Tween-80
[2] = dose: 50.0 mg/kg/injection, vehicle: saline with Tween-80
[3] = dose: 100.0 mg/kg/injection, vehicle: saline with Tween-80
[4] = dose: 200.0 mg/kg/injection, vehicle: saline with Tween-80
[5] = dose: 400.0 mg/kg/injection, vehicle: saline with Tween-80
[6] = dose: 50.0 mg/kg/injection, vehicle: Klucel (hydroxypropylcellulose) (HPC)
[7] = dose: 100.0 mg/kg/injection, vehicle: Klucel (hydroxypropylcellulose) (HPC)
[8] = dose: 200.0 mg/kg/injection, vehicle: Klucel (hydroxypropylcellulose) (HPC)

Measured: T/C

O=C1C=C(N2CC2)C(=O)C(N2CC2)=C1N1CC1
inactive: dose: 1.0 micrograms/kg/injection, vehicle: saline 111 % of control | dose: 3.0 micrograms/kg/injection, vehicle: saline 109 % of control | dose: 6.0 micrograms/kg/injection, vehicle: saline 109 % of control | dose: 12.0 micrograms/kg/injection, vehicle: saline 118 % of control

CCCCCCCCCCCC1=NCCN1
inactive: [1] 94 % of control | dose: 6.0 mg/kg/injection, vehicle: saline with Tween-80 97 % of control | dose: 12.0 mg/kg/injection, vehicle: saline with Tween-80 88 % of control

CCC[CH2][Hg][O]C(C)=O
inactive: dose: 0.63 mg/kg/injection, vehicle: other 99 % of control | dose: 1.25 mg/kg/injection, vehicle: other 89 % of control | dose: 2.5 mg/kg/injection, vehicle: other 86 % of control

COc1cccc2c1C(=O)c1c(O)c3c(c(O)c1C2=O)C[C@@](O)(C(=O)CO)C[C@@H]3OC1CC(NC=O)C(O)C(C)O1 (stereo not given in full)
inactive: dose: 1.56 mg/kg/injection, vehicle: other 118 % of control
active: dose: 6.25 mg/kg/injection, vehicle: other 185 % of control | dose: 12.5 mg/kg/injection, vehicle: other 171 % of control and 203 % of control | dose: 25.0 mg/kg/injection, vehicle: other 194 % of control | dose: 50.0 mg/kg/injection, vehicle: other 198 % of control and 259 % of control | dose: 100.0 mg/kg/injection, vehicle: other 259 % of control

CCOC(=O)C(Cc1ccc(Cl)c(Cl)c1)(Cc1ccc(Cl)c(Cl)c1)C(=O)OCC
inactive: dose: 12.5 mg/kg/injection, vehicle: saline with Tween-80 99 % of control | dose: 25.0 mg/kg/injection, vehicle: saline with Tween-80 97 % of control | [2] 94 % of control

CCC(C)C(C(=O)O)c1ccccc1 (stereo not given)
inactive: [3] 107 % of control | [4] 99 % of control | [5] 93 % of control

CNC(=O)CCN1CCN(CC/C=C2\c3ccccc3Sc3ccc(Cl)cc32)CC1
inactive: dose: 0.12 mg/kg/injection, vehicle: saline 105 % of control | dose: 0.51 mg/kg/injection, vehicle: saline 100 % of control | dose: 1.03 mg/kg/injection, vehicle: saline 87 % of control | dose: 2.06 mg/kg/injection, vehicle: saline 95 % of control | dose: 4.12 mg/kg/injection, vehicle: saline 97 % of control

C/C=C(\C)C(=O)OC1C(C)=C2C(C1OC(=O)CCCC)C(C)(OC(C)=O)CC(OC(=O)CCCC)C1(O)C2OC(=O)C1(C)O (stereo not given)
inactive: dose: 0.37 mg/kg/injection, vehicle: Klucel (hydroxypropylcellulose) (HPC) 90 % of control | dose: 0.75 mg/kg/injection, vehicle: Klucel (hydroxypropylcellulose) (HPC) 101 % of control | dose: 1.5 mg/kg/injection, vehicle: Klucel (hydroxypropylcellulose) (HPC) 106 % of control | dose: 3.0 mg/kg/injection, vehicle: Klucel (hydroxypropylcellulose) (HPC) 89 % of control

N=N/C(=C\c1c(O)[nH]c2ccccc12)c1ccccc1
inactive: [2] 98 % of control | [3] 105 % of control | [4] 98 % of control | [5] 89 % of control

CC[CH2][Pb]([CH2]CC)([CH2]CC)[O]C(=O)C(F)(F)F
inactive: dose: 0.39 mg/kg/injection, vehicle: saline with Tween-80 93 % of control | dose: 0.78 mg/kg/injection, vehicle: saline with Tween-80 111 % of control | dose: 1.5 mg/kg/injection, vehicle: saline with Tween-80 104 % of control | [1] 98 % of control | dose: 3.12 mg/kg/injection, vehicle: saline with Tween-80 86 % of control

CC(=O)NCC1(c2ccccc2)CCN(CCCC(=O)c2ccc(F)cc2)CC1
inactive: [6] 93 % of control | [7] 106 % of control

SCc1ccccn1
inactive: dose: 100.0 mg/kg/injection, vehicle: saline 112 % of control | dose: 200.0 mg/kg/injection, vehicle: saline 115 % of control | dose: 400.0 mg/kg/injection, vehicle: saline 105 % of control

C=CCCOC(C)=O
inactive: [6] 100 % of control | [7] 108 % of control | [8] 108 % of control

Nc1ccc(C(=O)Oc2ccc([N+](=O)[O-])cc2)c(O)c1
inactive: [7] 87 % of control | [8] 97 % of control
